Columns and labels:
Cytochrome P450 2E1 = Cytochrome P450 2E1 (Homo sapiens, UniProt P05181); settings: bti-tn-5b1-4; note: in other assays of this panel Not Active means under 50% inhibition at 10 µM
[1] = target: T1, C-X-C chemokine receptor type 2 (Homo sapiens, UniProt P25025); format: cell membranes, CHO-K1, Membrane; settings: cho-k1; note: in other assays of this panel Not Active means under 50% inhibition at 10 µM
T1 sequence (P25025 whole entry): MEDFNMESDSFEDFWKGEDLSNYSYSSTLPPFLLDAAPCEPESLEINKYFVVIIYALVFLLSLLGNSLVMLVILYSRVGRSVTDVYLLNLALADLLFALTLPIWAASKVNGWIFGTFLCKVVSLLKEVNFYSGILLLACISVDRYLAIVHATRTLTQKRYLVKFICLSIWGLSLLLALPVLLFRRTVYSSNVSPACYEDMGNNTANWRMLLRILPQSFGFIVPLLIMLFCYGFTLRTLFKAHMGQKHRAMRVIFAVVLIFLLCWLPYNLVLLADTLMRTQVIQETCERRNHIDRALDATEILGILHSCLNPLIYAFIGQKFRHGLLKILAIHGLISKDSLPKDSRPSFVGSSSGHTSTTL

Cytochrome P450 2A6 = target: T2, Cytochrome P450 2A6 (Homo sapiens, UniProt P11509); settings: bti-tn-5b1-4; note: in other assays of this panel Not Active means under 50% inhibition at 10 µM
T2 sequence (P11509 whole entry): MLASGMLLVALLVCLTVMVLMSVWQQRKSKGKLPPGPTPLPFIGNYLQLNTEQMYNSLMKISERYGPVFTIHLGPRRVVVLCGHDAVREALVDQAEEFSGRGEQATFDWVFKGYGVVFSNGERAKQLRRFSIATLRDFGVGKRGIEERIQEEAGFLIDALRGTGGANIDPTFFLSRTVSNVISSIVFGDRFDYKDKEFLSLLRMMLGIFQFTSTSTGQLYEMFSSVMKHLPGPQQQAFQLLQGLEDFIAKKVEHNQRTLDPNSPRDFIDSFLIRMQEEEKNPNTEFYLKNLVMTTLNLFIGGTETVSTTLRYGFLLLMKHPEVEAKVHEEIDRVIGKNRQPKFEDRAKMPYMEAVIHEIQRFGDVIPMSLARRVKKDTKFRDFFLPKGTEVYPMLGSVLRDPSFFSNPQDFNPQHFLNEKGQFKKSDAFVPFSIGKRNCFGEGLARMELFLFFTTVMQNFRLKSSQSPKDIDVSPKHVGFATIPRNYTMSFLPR

B2 bradykinin receptor = target: T3, B2 bradykinin receptor (Homo sapiens, UniProt P30411); format: cell membranes, Membrane; settings: chem-1; note: in other assays of this panel Not Active means under 50% inhibition at 10 µM
T3 sequence (P30411 whole entry): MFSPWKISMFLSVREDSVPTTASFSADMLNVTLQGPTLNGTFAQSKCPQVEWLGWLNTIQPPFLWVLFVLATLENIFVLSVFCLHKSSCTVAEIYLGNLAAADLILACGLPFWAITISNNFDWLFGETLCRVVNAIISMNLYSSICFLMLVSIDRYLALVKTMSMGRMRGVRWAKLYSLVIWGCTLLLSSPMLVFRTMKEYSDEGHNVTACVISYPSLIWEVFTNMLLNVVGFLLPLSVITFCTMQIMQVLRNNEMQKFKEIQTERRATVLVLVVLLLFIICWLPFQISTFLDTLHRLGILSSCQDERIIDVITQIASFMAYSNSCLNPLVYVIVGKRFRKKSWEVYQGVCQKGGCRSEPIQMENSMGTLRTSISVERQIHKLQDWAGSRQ

[2] = DRUGMATRIX: Platelet-Derived Growth Factor (PDGF) radioligand binding (ligand: [125I] PDGF); format: cell-based; settings: nih3t3; Not Active = under 50% inhibition at 10 µM
[3] = target: 5-hydroxytryptamine receptor 2B (Homo sapiens, UniProt P41595); format: cell membranes, CHO-K1, Membrane; settings: cho-k1; note: in other assays of this panel Not Active means under 50% inhibition at 10 µM
Chain of 5-hydroxytryptamine receptor 2B (P41595 whole entry): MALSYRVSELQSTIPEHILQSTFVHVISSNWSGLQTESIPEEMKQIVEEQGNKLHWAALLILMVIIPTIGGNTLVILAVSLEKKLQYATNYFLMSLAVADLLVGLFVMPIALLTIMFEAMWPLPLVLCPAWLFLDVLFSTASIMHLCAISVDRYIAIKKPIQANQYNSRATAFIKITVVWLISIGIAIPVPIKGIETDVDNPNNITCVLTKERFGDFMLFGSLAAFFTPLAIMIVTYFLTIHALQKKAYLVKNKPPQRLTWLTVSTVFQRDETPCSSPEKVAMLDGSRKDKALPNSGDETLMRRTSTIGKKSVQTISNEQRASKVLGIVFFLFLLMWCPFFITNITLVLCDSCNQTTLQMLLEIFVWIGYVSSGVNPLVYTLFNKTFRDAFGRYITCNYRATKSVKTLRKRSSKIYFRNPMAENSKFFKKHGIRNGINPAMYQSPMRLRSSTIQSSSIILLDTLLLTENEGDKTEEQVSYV

[4] = DRUGMATRIX: Phorbol Ester radioligand binding (ligand: [3H] PDBu); format: cell membranes, Mus musculus, ICR, Brain, Membrane; settings: Not Active = under 50% inhibition at 10 µM
Cytochrome P450 2C9 = Cytochrome P450 2C9 (Homo sapiens, UniProt P11712); settings: bti-tn-5b1-4; note: in other assays of this panel Not Active means under 50% inhibition at 10 µM
Chain of Cytochrome P450 2C9 (P11712 whole entry): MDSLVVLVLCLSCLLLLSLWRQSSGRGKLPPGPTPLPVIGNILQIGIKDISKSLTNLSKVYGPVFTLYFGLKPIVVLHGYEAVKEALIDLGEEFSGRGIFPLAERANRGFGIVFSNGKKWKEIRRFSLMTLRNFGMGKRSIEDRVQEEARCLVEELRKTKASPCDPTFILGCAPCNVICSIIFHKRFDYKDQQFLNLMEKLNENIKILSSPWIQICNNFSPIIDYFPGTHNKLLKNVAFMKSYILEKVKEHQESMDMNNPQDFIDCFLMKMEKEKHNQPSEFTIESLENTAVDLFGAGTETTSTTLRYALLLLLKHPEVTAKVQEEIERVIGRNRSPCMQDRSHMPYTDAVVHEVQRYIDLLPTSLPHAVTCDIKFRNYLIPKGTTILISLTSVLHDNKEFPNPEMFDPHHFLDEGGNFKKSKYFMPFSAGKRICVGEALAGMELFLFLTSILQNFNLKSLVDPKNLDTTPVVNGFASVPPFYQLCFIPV

Chain of Cytochrome P450 2E1 (P05181 whole entry): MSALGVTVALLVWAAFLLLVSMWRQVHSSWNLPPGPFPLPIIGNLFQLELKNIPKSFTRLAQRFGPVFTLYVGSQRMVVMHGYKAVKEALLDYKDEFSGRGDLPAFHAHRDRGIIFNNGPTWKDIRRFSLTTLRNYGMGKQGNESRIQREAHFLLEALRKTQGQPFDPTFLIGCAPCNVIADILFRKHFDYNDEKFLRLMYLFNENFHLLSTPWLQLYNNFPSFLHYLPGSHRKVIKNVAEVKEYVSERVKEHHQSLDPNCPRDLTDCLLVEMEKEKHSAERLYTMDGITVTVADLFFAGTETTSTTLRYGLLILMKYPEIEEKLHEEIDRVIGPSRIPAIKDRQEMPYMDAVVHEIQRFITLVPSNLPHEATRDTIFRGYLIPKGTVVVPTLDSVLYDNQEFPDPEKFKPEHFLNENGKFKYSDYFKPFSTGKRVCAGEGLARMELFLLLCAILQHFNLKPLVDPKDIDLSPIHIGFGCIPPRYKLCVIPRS

COc1ccc(C[C@H](N)C(=O)N[C@H]2[C@@H](O)[C@H](n3cnc4c(N(C)C)ncnc43)O[C@@H]2CO)cc1 [PUROMYCIN]
Not Active: IC50 (Cytochrome P450 2E1) | Ki (Cytochrome P450 2E1) | IC50 [1] | IC50 (Cytochrome P450 2A6) | Ki (Cytochrome P450 2A6) | IC50 (B2 bradykinin receptor) | IC50 [2] | Ki [2] | IC50 [3] | IC50 [4] | Ki [4] | IC50 (Cytochrome P450 2C9) | Ki (Cytochrome P450 2C9)

CARBOXYMETHYLCELLULOSE
Not Active: IC50 (Cytochrome P450 2E1) | Ki (Cytochrome P450 2E1) | IC50 [1] | Ki [1] | IC50 (Cytochrome P450 2A6) | Ki (Cytochrome P450 2A6) | IC50 (B2 bradykinin receptor) | Ki (B2 bradykinin receptor) | IC50 [2] | Ki [2] | IC50 [3] | Ki [3] | IC50 [4] | Ki [4] | IC50 (Cytochrome P450 2C9) | Ki (Cytochrome P450 2C9)

CHROMIC CHLORIDE
Not Active: IC50 (Cytochrome P450 2E1) | Ki (Cytochrome P450 2E1) | IC50 [1] | Ki [1] | IC50 (Cytochrome P450 2A6) | Ki (Cytochrome P450 2A6) | IC50 (B2 bradykinin receptor) | Ki (B2 bradykinin receptor) | IC50 [2] | Ki [2] | IC50 [3] | Ki [3] | IC50 [4] | Ki [4] | IC50 (Cytochrome P450 2C9) | Ki (Cytochrome P450 2C9)

COPPER(II) OXIDE
Not Active: IC50 (Cytochrome P450 2E1) | Ki (Cytochrome P450 2E1) | IC50 [1] | Ki [1] | IC50 (Cytochrome P450 2A6) | Ki (Cytochrome P450 2A6) | IC50 (B2 bradykinin receptor) | Ki (B2 bradykinin receptor) | IC50 [2] | Ki [2] | IC50 [3] | Ki [3] | IC50 [4] | Ki [4] | IC50 (Cytochrome P450 2C9) | Ki (Cytochrome P450 2C9)

POVIDONE
Not Active: IC50 (Cytochrome P450 2E1) | Ki (Cytochrome P450 2E1) | IC50 [1] | Ki [1] | IC50 (Cytochrome P450 2A6) | Ki (Cytochrome P450 2A6) | IC50 (B2 bradykinin receptor) | Ki (B2 bradykinin receptor) | IC50 [2] | Ki [2] | IC50 [3] | Ki [3] | IC50 [4] | Ki [4] | IC50 (Cytochrome P450 2C9) | Ki (Cytochrome P450 2C9)
